“And” between values parts separate entries of the source, which are not always exact repeats. Identical values can stand only once. Inconclusive results and toxic doses are left out. Rule for the calls: active = survival T/C of 150% or more; inactive = T/C below 125% in these data. Peptide text beside a SMILES is read from it. * marks the point of attachment. Cbz = O=C(OCc1ccccc1)*
System: P388 leukemia ip, CD2F1 mice, survival T/C
Assay: NCI In Vivo Anticancer Drug Screen. Data for tumor model P388 Leukemia (intraperitoneal) in CD2F1 (CDF1) mice
Settings: endpoint: median survival time, higher = longer survival
Outline: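 Mice carrying the transplanted tumor received test compound or vehicle. Survival was recorded in each group, and the value is the treated-group measurement divided by that of the vehicle-treated control group.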

[1] = dose: 50.0 mg/kg/injection, schedule: Q01DX005 (ip), vehicle: saline with Tween-80
[2] = dose: 100.0 mg/kg/injection, schedule: Q01DX005 (ip), vehicle: saline with Tween-80
[3] = dose: 200.0 mg/kg/injection, schedule: Q01DX005 (ip), vehicle: saline with Tween-80
[4] = dose: 25.0 mg/kg/injection, schedule: Q01DX009 (ip), vehicle: saline with Tween-80
[5] = dose: 50.0 mg/kg/injection, schedule: Q01DX009 (ip), vehicle: saline with Tween-80
[6] = dose: 100.0 mg/kg/injection, schedule: Q01DX009 (ip), vehicle: saline with Tween-80
[7] = dose: 60.0 mg/kg/injection, schedule: Q01DX005 (ip), vehicle: saline with Tween-80
[8] = dose: 120.0 mg/kg/injection, schedule: Q01DX005 (ip), vehicle: saline with Tween-80
[9] = dose: 240.0 mg/kg/injection, schedule: Q01DX005 (ip), vehicle: saline with Tween-80
[10] = dose: 50.0 mg/kg/injection, schedule: Q01DX005 (ip), vehicle: Klucel (hydroxypropylcellulose) (HPC)
[11] = dose: 100.0 mg/kg/injection, schedule: Q01DX005 (ip), vehicle: Klucel (hydroxypropylcellulose) (HPC)
[12] = dose: 200.0 mg/kg/injection, schedule: Q01DX005 (ip), vehicle: Klucel (hydroxypropylcellulose) (HPC)
[13] = dose: 12.5 mg/kg/injection, schedule: Q01DX005 (ip), vehicle: Klucel (hydroxypropylcellulose) (HPC)
[14] = dose: 25.0 mg/kg/injection, schedule: Q01DX005 (ip), vehicle: Klucel (hydroxypropylcellulose) (HPC)
[15] = dose: 50.0 mg/kg/injection, schedule: Q01DX009 (ip), vehicle: Klucel (hydroxypropylcellulose) (HPC)
[16] = dose: 100.0 mg/kg/injection, schedule: Q01DX009 (ip), vehicle: Klucel (hydroxypropylcellulose) (HPC)
[17] = dose: 200.0 mg/kg/injection, schedule: Q01DX009 (ip), vehicle: Klucel (hydroxypropylcellulose) (HPC)
[18] = dose: 200.0 mg/kg/injection, schedule: Q01DX009 (ip), vehicle: saline with Tween-80
[19] = dose: 50.0 mg/kg/injection, schedule: Q01DX009 (ip), vehicle: saline
[20] = dose: 100.0 mg/kg/injection, schedule: Q01DX009 (ip), vehicle: saline

Measured: T/C

CC1[C@@]2(CCC(C)(C)O2)O[C@@H]2C=C3C4CCC5Cc6nc7c(nc6C[C@@]5(C)C4C[C@H](O)[C@@]3(C)[C@]12O)CC1CCC2C3=C[C@H]4O[C@@]5(O[C@@](C)(CO)C[C@@H]5O)C(C)[C@@]4(O)[C@]3(C)[C@@H](O)CC2[C@]1(C)C7 (some centres undefined)
inactive: dose: 12.5 micrograms/kg/injection, schedule: Q01DX009 (ip), vehicle: saline + alcohol 109 % of control | dose: 25.0 micrograms/kg/injection, schedule: Q01DX009 (ip), vehicle: saline + alcohol 98 % of control | dose: 50.0 micrograms/kg/injection, schedule: Q01DX009 (ip), vehicle: saline + alcohol 107 % of control | dose: 100.0 micrograms/kg/injection, schedule: Q01DX009 (ip), vehicle: saline + alcohol 107 % of control

N#CCc1ccc([N+](=O)[O-])cc1C(=O)O
inactive: [1] 104 % of control | [2] 104 % of control | [3] 101 % of control

COC(=O)CCCCC(=O)OC
inactive: dose: 100.0 mg/kg/injection, schedule: Q04DX003 (ip), vehicle: saline 109 % of control | dose: 200.0 mg/kg/injection, schedule: Q04DX003 (ip), vehicle: saline 109 % of control | dose: 400.0 mg/kg/injection, schedule: Q04DX003 (ip), vehicle: saline 109 % of control

CCCCCCCCCCCCCCCCC/C=C1\CC(=O)OC1=O
inactive: [4] 103 % of control | [5] 97 % of control | [6] 89 % of control

Cc1cc2sccc2cn1
inactive: [4] 100 % of control | [5] 100 % of control

O=C(c1ccc([N+](=O)[O-])cc1)N1CCCSC1=S
inactive: [7] 107 % of control | [8] 98 % of control | [9] 101 % of control

Cc1ccc(C(C)(N=[N+]=[N-])c2ccccc2)cc1C (centres undefined)
inactive: [4] 91 % of control | [5] 108 % of control | [6] 109 % of control

CC1(C)CC(=O)C(C(c2ccc3c(c2)OCO3)C2C(=O)CC(C)(C)CC2=O)C(=O)C1
inactive: [10] 91 % of control | [11] 101 % of control | [12] 104 % of control

O=C(NC(O)C(=O)O)c1ccc(Cl)cc1 (centres undefined)
inactive: [7] 97 % of control | [8] 95 % of control | [9] 97 % of control

Cc1ccc(NC(=O)OCCN(C)C)cc1Cl
inactive: dose: 60.0 mg/kg/injection, schedule: Q01DX005 (ip), vehicle: Klucel + Tween-80 101 % of control | dose: 120.0 mg/kg/injection, schedule: Q01DX005 (ip), vehicle: Klucel + Tween-80 99 % of control | dose: 240.0 mg/kg/injection, schedule: Q01DX005 (ip), vehicle: Klucel + Tween-80 91 % of control

COc1cccc(N=Nc2c(N)nc(N)nc2N)c1
inactive: dose: 12.5 mg/kg/injection, schedule: Q01DX009 (ip), vehicle: saline with Tween-80 100 % of control | [4] 108 % of control | [5] 117 % of control

CCCCCCCCCCCCCC[N+]1([O-])CCOCC1
inactive: dose: 25.0 mg/kg/injection, schedule: Q04DX002 (ip), vehicle: saline 104 % of control | dose: 50.0 mg/kg/injection, schedule: Q04DX002 (ip), vehicle: saline 104 % of control | dose: 100.0 mg/kg/injection, schedule: Q04DX002 (ip), vehicle: saline 104 % of control and 94 % of control

O=C(O)Cc1ccccc1C(=O)O.[Pb]
inactive: [4] 90 % of control | [5] 104 % of control | [6] 86 % of control

Cc1nc2ccccc2c(=O)n1/N=C1/C(=O)Nc2ccc(Br)cc21
inactive: [13] 96 % of control | [14] 96 % of control | [10] 88 % of control and 90 % of control | [11] 91 % of control | [12] 104 % of control

COC(=O)CCCC1=NCCS1
inactive: [1] 103 % of control | [2] 103 % of control | [3] 112 % of control

N#C/C(=C/c1ccc(Cl)cc1)c1ccc(Cl)cc1
inactive: [15] 102 % of control | [16] 110 % of control | [17] 102 % of control

COc1cc(Br)cc(/C=C/[N+](=O)[O-])c1OC
inactive: [5] 115 % of control

Cn1nnc(-c2ccccc2)n1
inactive: dose: 100.0 mg/kg/injection, schedule: Q04DX002 (ip), vehicle: saline with Tween-80 107 % of control | dose: 200.0 mg/kg/injection, schedule: Q04DX002 (ip), vehicle: saline with Tween-80 102 % of control | dose: 400.0 mg/kg/injection, schedule: Q04DX002 (ip), vehicle: saline with Tween-80 112 % of control

Cc1oc2ccccc2c(=O)c1C(=O)O
inactive: [10] 99 % of control | [11] 100 % of control | [12] 101 % of control

C(=C(Sc1ccccc1)Sc1ccccc1)C(Sc1ccccc1)c1ccccc1 (centres undefined)
inactive: [15] 93 % of control | [16] 96 % of control | [17] 90 % of control

O=C(NC(Cc1ccccc1)C(=O)N1CCCC1C(=O)O)OCc1ccccc1 (stereo not drawn) (Cbz-Phe-Pro-OH; configuration not given here)
inactive: [1] 95 % of control | [2] 100 % of control | [3] 97 % of control

CN1C(=NCCO)NS(=O)(=O)c2ccccc21
inactive: [1] 98 % of control | [2] 100 % of control | [3] 104 % of control

COc1ccc(-c2cc(-c3ccccc3)c(-c3ccccc3)nn2)cc1
inactive: [5] 96 % of control | [6] 101 % of control | [18] 96 % of control

CCN(CC)CCOc1ccc(C2c3cc(OC)ccc3CC2Cc2cccc(Cl)c2)cc1 (centres undefined)
inactive: dose: 6.25 mg/kg/injection, schedule: Q01DX005 (ip), vehicle: Klucel (hydroxypropylcellulose) (HPC) 98 % of control | [13] 95 % of control | [14] 96 % of control | [10] 93 % of control

CN(C)CN1CSC(=S)N(CN(C)C)C1
inactive: dose: 50.0 mg/kg/injection, schedule: Q01DX005 (ip), vehicle: distilled water + alcohol 103 % of control | dose: 100.0 mg/kg/injection, schedule: Q01DX005 (ip), vehicle: distilled water + alcohol 116 % of control | dose: 200.0 mg/kg/injection, schedule: Q01DX005 (ip), vehicle: distilled water + alcohol 103 % of control

NC(=S)c1cccc(C=O)n1
inactive: [4] 99 % of control | [5] 99 % of control | dose: 50.0 mg/kg/injection, schedule: Q04DX003 (ip), vehicle: Klucel (hydroxypropylcellulose) (HPC) 110 % of control | [6] 97 % of control | dose: 100.0 mg/kg/injection, schedule: Q04DX003 (ip), vehicle: Klucel (hydroxypropylcellulose) (HPC) 112 % of control | dose: 200.0 mg/kg/injection, schedule: Q04DX003 (ip), vehicle: Klucel (hydroxypropylcellulose) (HPC) 114 % of control

O=C(Cc1nc2ccccc2[nH]1)NNC(=S)Nc1ccc(Cl)cc1
inactive: dose: 60.0 mg/kg/injection, schedule: Q01DX005 (ip), vehicle: Klucel (hydroxypropylcellulose) (HPC) 88 % of control | dose: 120.0 mg/kg/injection, schedule: Q01DX005 (ip), vehicle: Klucel (hydroxypropylcellulose) (HPC) 86 % of control

CNC(=O)c1ccccc1
inactive: [4] 98 % of control | [5] 100 % of control | [6] 100 % of control | [18] 100 % of control

COCC(=O)O
inactive: [19] 96 % of control | [20] 93 % of control

COC(=O)C1(CC(=O)C(C)(C)C)NC(=S)NC(=O)C1C#N (centres undefined)
inactive: dose: 60.0 mg/kg/injection, schedule: Q01DX005 (ip), vehicle: saline 107 % of control | dose: 120.0 mg/kg/injection, schedule: Q01DX005 (ip), vehicle: saline 101 % of control | dose: 240.0 mg/kg/injection, schedule: Q01DX005 (ip), vehicle: saline 97 % of control

CCCCCCCCCCCCOC(=O)CN=C=O
inactive: [19] 100 % of control and 101 % of control | [20] 100 % of control | dose: 200.0 mg/kg/injection, schedule: Q01DX009 (ip), vehicle: saline 107 % of control and 89 % of control

CC(C)NCc1ccccc1Sc1ccccc1
inactive: dose: 25.0 mg/kg/injection, schedule: Q01DX001 (ip), vehicle: saline with Tween-80 96 % of control | dose: 50.0 mg/kg/injection, schedule: Q01DX001 (ip), vehicle: saline with Tween-80 104 % of control | dose: 100.0 mg/kg/injection, schedule: Q01DX001 (ip), vehicle: saline with Tween-80 95 % of control

Reference: PubChem BioAssay AID330 (DTP/NCI, 2004)
